# From PMC12592400, “A unique inhibitor conformation selectively targets the DNA polymerase PolC of Gram-positive priority pathogens” (Nature Communications, 2025)
# pIC50: −log10 of the molar value. Several values for one entry are separate records, joined by “and”; a condition that tells them apart may be missing. Equal entries are not always repeated.
# What was measured:
# [1] = target: T1, E. faecium DnaE (Enterococcus faecium, UniProt Q3XYP9); test: Real-time DNA primer extension assay; type: biochemical; settings: for rate of activity (slope of fluorescence intensity change over time): Fig. 1f source data, E. faecium DnaE; for pIC50: Fig. 1f, n = 3, ± SEM
# T1 sequence (Q3XYP9 1-1104): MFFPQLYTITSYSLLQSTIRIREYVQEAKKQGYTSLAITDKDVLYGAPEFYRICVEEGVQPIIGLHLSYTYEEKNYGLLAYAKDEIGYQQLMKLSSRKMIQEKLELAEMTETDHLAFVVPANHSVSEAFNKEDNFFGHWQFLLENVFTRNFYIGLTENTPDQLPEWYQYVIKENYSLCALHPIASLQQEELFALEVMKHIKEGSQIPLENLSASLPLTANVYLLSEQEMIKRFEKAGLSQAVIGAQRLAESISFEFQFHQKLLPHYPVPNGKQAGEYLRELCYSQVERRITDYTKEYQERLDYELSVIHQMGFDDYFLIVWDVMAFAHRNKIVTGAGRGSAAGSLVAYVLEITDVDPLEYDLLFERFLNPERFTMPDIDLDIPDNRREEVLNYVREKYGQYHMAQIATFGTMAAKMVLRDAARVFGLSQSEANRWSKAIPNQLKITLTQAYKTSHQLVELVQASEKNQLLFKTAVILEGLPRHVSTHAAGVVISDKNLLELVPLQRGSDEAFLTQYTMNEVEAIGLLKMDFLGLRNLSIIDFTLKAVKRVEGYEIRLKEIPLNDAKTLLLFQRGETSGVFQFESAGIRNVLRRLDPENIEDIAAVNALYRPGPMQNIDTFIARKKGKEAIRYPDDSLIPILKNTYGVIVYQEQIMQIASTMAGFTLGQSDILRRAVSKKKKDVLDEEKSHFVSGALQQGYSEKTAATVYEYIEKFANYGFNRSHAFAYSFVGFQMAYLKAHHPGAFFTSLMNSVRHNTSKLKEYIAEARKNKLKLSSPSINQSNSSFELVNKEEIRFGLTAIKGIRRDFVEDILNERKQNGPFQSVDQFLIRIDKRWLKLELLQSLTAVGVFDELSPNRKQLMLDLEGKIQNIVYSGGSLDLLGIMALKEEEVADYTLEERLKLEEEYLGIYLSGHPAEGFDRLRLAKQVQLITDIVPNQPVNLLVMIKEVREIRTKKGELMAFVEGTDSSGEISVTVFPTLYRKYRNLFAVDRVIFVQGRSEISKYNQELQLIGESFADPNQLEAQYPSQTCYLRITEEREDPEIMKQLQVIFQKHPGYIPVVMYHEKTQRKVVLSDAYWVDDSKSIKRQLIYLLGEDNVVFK
# [2] = test system: C. difficile strain carrying a F1258L mutation; test: MIC of C. difficile strain obtained by one-step passage; type: cell-based; settings: Clostridioides difficile
# [3] = cited from earlier work
# [4] = design: method as in PMID 35134880, PMID 32892222; settings: cited from earlier work
# [5] = test system: Clostridioides difficile infection; design: method as in PMID 35862742, PMID 35134880; settings: patients cured of CDI through treatment with IBZ; cited from earlier work
# [6] = test system: E. faecium ATCC 700221; test: Frequency of resistance (FOR) study; type: cell-based, Enterococcus faecium; settings: for CFU total count (48h): replicates 1-2; for Number of reduced susceptible colonies: Suppl. Table 2
# Procedure: Strains with reduced susceptibility to ACX compounds were generated by WuXi Apptec on behalf of Acurx Pharmaceuticals, Inc., using E. faecium ATCC 700221 as parental strain.
# Agar MICs for the wild-type strain were determined on Blood agar (Huankai). Compounds and linezolid were dissolved in 100% DMSO and vancomycin in ultrapure water. Strains were inoculated onto agar plates, incubated at 37 °C for 20-24 h after which colonies were suspended in sterile 0.9% saline at different bacterial concentrations. 5 μL of bacterial suspensions was individually spotted on agar plates supplemented with compounds at different concentrations, resulting in final concentrations of 10^–1, 10^–2, 10^–3, 10^–4, 10^–5, 10^–6, and 10^–7 per spot. After incubation for 20-24 h, bacterial growth was assessed by visual inspection.
# For frequency of resistance (FOR) studies, colonies from the agar plate were suspended into sterile 0.9% saline to get 10^8-10^9 CFU bacterial cells per mL. […] The suspensions were also serially diluted with 0.9% saline and spotted onto agar to determine the actual inoculum. All agar plates were incubated at 37 °C for 48 h. FOR was defined as colony number on each compound-containing plate per CFU number of actual inoculum. Resistant colonies were subcultured on the corresponding compound plates to confirm that colonies were resistant and stable.
structure (smiles),measurement,setting,value
"O=c1[nH]c(NCc2ccc3c(c2)OC(F)(F)O3)nc2c(F)nn(CCO)c12 [ACX-801, 5-(((2,2-difluorobenzo[d][1,3]dioxol-5-yl)methyl)amino)-3-fluoro-1-(2-hydroxyethyl)-1,6-dihydro-7H-pyrazolo[4,3-d]pyrimidin-7-one]",rate of activity (slope of fluorescence intensity change over time),[1]; inhibitor 2.5 uM,49.5 and 44.4 and 49.3
same,rate of activity (slope of fluorescence intensity change over time),[1]; inhibitor 4 uM,51.3 and 51.4 and 45.3
same,rate of activity (slope of fluorescence intensity change over time),[1]; inhibitor 12.5 uM,48.4 and 47.3 and 48.0
same,rate of activity (slope of fluorescence intensity change over time),[1]; inhibitor 20 uM,47.8 and 51.2
same,rate of activity (slope of fluorescence intensity change over time),[1]; inhibitor 30 uM,50.3 and 47.9 and 46.9
same,rate of activity (slope of fluorescence intensity change over time),[1]; inhibitor 45 uM,47.9 and 46.1 and 47.4
same,rate of activity (slope of fluorescence intensity change over time),[1]; inhibitor 67.5 uM,46.5 and 39.7 and 47.4
same,rate of activity (slope of fluorescence intensity change over time),[1]; inhibitor 100 uM,45.5 and 39.2 and 38.1
same,pIC50,[1],< 4.00
"O=c1[nH]c(NCc2ccc(Cl)c(Cl)c2)nc2ncn(CCN3CCOCC3)c12 [IBZ, N^2-(3,4-dichlorobenzyl)-7-(2-[1-morpholinyl]ethyl)guanine]",rate of activity (slope of fluorescence intensity change over time),[1]; inhibitor 2.5 uM,49.8 and 49.1 and 50.9
same,rate of activity (slope of fluorescence intensity change over time),[1]; inhibitor 4 uM,37.6 and 41.6 and 39.1
same,rate of activity (slope of fluorescence intensity change over time),[1]; inhibitor 12.5 uM,40.9 and 43.1 and 37.2
same,rate of activity (slope of fluorescence intensity change over time),[1]; inhibitor 20 uM,38.6 and 37.7 and 36.0
same,rate of activity (slope of fluorescence intensity change over time),[1]; inhibitor 30 uM,35.7 and 37.2 and 30.7
same,rate of activity (slope of fluorescence intensity change over time),[1]; inhibitor 45 uM,28.3 and 28.4 and 27.5
same,rate of activity (slope of fluorescence intensity change over time),[1]; inhibitor 67.5 uM,18.3 and 24.4 and 21.1
same,rate of activity (slope of fluorescence intensity change over time),[1]; inhibitor 100 uM,19.9 and 17.8 and 14.2
same,pIC50,[1],4.05
same,inhibition towards E. faecium DnaE lower than PolC,"[1]; in vitro, DnaE versus PolC",~ seven-fold
same,MIC,[2],64 µg/mL
same,absorption,[3],poorly absorbed
same,faecal levels,[3],> 1000 μg/g stool
same,solubility,[4],low
same,recurrence of CDI during the post-treatment study period,[5],no recurrence was observed
"CC(=O)NC[C@H]1CN(c2ccc(N3CCOCC3)c(F)c2)C(=O)O1 [LZD, linezolid]",CFU total count (48h),"[6]; 1x MIC (ACX-728 2, ACX-641 0.5, ACX-671 1, ACX-763 4, Linezolid 2 mg/L), inoculum 1.3E+07 CFU/plate",TMTC
same,CFU total count (48h),"[6]; 1x MIC (ACX-728 2, ACX-641 0.5, ACX-671 1, ACX-763 4, Linezolid 2 mg/L), inoculum 1.3E+08 CFU/plate",TMTC
same,CFU total count (48h),"[6]; 2x MIC (ACX-728 4, ACX-641 1, ACX-671 2, ACX-763 8, Linezolid 4 mg/L), inoculum 1.3E+07 CFU/plate",TMTC
same,CFU total count (48h),"[6]; 2x MIC (ACX-728 4, ACX-641 1, ACX-671 2, ACX-763 8, Linezolid 4 mg/L), inoculum 1.3E+08 CFU/plate",TMTC
same,CFU total count (48h),"[6]; 4x MIC (ACX-728 8, ACX-641 2, ACX-671 4, ACX-763 16, Linezolid 8 mg/L), inoculum 1.3E+07 CFU/plate",TMTC
same,CFU total count (48h),"[6]; 4x MIC (ACX-728 8, ACX-641 2, ACX-671 4, ACX-763 16, Linezolid 8 mg/L), inoculum 1.3E+08 CFU/plate",TMTC
same,CFU total count (48h),"[6]; 8x MIC (ACX-728 16, ACX-641 4, ACX-671 8, ACX-763 32, Linezolid 16 mg/L), inoculum 1.3E+07 CFU/plate",TMTC
same,CFU total count (48h),"[6]; 8x MIC (ACX-728 16, ACX-641 4, ACX-671 8, ACX-763 32, Linezolid 16 mg/L), inoculum 1.3E+08 CFU/plate",TMTC
same,CFU total count (48h),"[6]; 16x MIC (ACX-728 32, ACX-641 8, ACX-671 16, ACX-763 64, Linezolid 32 mg/L), inoculum 1.3E+07 CFU/plate",TMTC
same,CFU total count (48h),"[6]; 16x MIC (ACX-728 32, ACX-641 8, ACX-671 16, ACX-763 64, Linezolid 32 mg/L), inoculum 1.3E+08 CFU/plate",TMTC
same,Number of reduced susceptible colonies,"[6]; Fold MIC 2, 1.3E+07 cells plated",TMTC
same,Number of reduced susceptible colonies,"[6]; Fold MIC 2, 1.3E+08 cells plated",TMTC
same,Number of reduced susceptible colonies,"[6]; Fold MIC 4, 1.3E+07 cells plated",TMTC
same,Number of reduced susceptible colonies,"[6]; Fold MIC 4, 1.3E+08 cells plated",TMTC
same,Number of reduced susceptible colonies,"[6]; Fold MIC 8, 1.3E+07 cells plated",TMTC
same,Number of reduced susceptible colonies,"[6]; Fold MIC 8, 1.3E+08 cells plated",TMTC
same,Number of reduced susceptible colonies,"[6]; Fold MIC 16, 1.3E+07 cells plated",TMTC
same,Number of reduced susceptible colonies,"[6]; Fold MIC 16, 1.3E+08 cells plated",TMTC
